According to the supplement of paper PMC11061612:

How the values were obtained:
[1] = system: IM-95 (Gastric Carcinoma); experiment: Bliss excess, mean over the matrix (fraction); higher = more synergy;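 also: after 72 h of two-drug dosing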
Outline: (§1)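 Cell lines in DMEM/F12 or RPMI with 10% FBS were plated in 1536-well plates, held 24 hours at 37°C, 5% CO2, then given two-drug dose matrices for 72 hours (DMSO typically 0.2%). Viability was read by CellTiter-Glo 2.0 luminescence and scaled as inhibition from 0 (vehicle wells) to 1 (blank wells). Combination Emax is the second-highest inhibition in the matrix; Bliss excess is observed combination effect minus expected EA + EB − EA·EB, EA and EB being single-agent effects.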

[2] = system: SK-GT-4 (Esophageal Adenocarcinoma); experiment: combination Emax (second highest fraction inhibited in the dose matrix, 72 h); higher = more inhibition; extreme values may be limits of the assay
Outline: as §1

[3] = system: T-T (Esophageal Squamous Cell Carcinoma); experiment: as above
Outline: as §1

[4] = system: CW-2 (Colorectal Carcinoma); experiment: as above
Outline: as §1

[5] = system: SNU-398 (Hepatocellular Carcinoma); experiment: as above
Outline: as §1

[6] = system: NCI-H661 (Non-Small Cell Lung Carcinoma); experiment: as above
Outline: as §1

[7] = system: COR-L279 (Small Cell Lung Carcinoma); experiment: as above
Outline: as §1

[8] = system: NCI-H3122 (Lung Adenocarcinoma); experiment: as above
Outline: as §1

[9] = system: DAN-G (Pancreatic Carcinoma); experiment: as above
Outline: as §1

[10] = system: SU-DHL-5 (B-Cell Non-Hodgkin's Lymphoma); experiment: as above
Outline: as §1

[11] = system: DMS-114 (Small Cell Lung Carcinoma); experiment: as above
Outline: as §1

[12] = system: RD (Rhabdomyosarcoma); experiment: as above
Outline: as §1

[13] = system: SK-GT-2 (Gastric Carcinoma); experiment: as above
Outline: as §1

[14] = system: M059J (Glioblastoma); experiment: as above
Outline: as §1

[15] = system: NCI-H2731 (Mesothelioma); experiment: as above
Outline: as §1

[16] = system: HCC1187 (Breast Carcinoma); experiment: as above
Outline: as §1

[17] = system: ESO51 (Esophageal Adenocarcinoma); experiment: as above
Outline: as §1

[18] = system: VMRC-RCZ (Kidney Carcinoma); experiment: as above
Outline: as §1

[19] = system: KYSE-270 (Esophageal Squamous Cell Carcinoma); experiment: as above
Outline: as §1

[20] = system: MN-60 (B-Lymphoblastic Leukemia); experiment: as above
Outline: as §1

SMILES	Bliss excess [1]	combination Emax [2]	combination Emax [3]	combination Emax [4]	combination Emax [5]	combination Emax [6]	combination Emax [7]	combination Emax [8]	combination Emax [9]	combination Emax [10]	combination Emax [11]	combination Emax [12]	combination Emax [13]	combination Emax [14]	combination Emax [15]	combination Emax [16]	combination Emax [17]	combination Emax [18]	combination Emax [19]	combination Emax [20]
CN(C)CCCOc1ccc(-c2ccc3ncc4c(c3c2)n(C2CCOCC2)c(=O)n4C)cn1 [AZD0156] + C=CCn1c(=O)c2cnc(Nc3ccc(N4CCN(C)CC4)cc3)nc2n1-c1cccc(C(C)(C)O)n1 [AZD1775] (first compound max 1 µM, partner max 1 µM)	-0.0366	0.4	0.377	0.292	0.473	0.523	0.454	0.765	0.651	0.977	0.257	0.401	0.714	0.628	0.285	0.299	0.69	0.206	0.676	0.374
CN(C)CCCOc1ccc(-c2ccc3ncc4c(c3c2)n(C2CCOCC2)c(=O)n4C)cn1 [AZD0156] + CCN(CCO)CCCOc1ccc2c(Nc3cc(CC(=O)Nc4cccc(F)c4)[nH]n3)ncnc2c1 [AZD2811] (first compound max 1 µM, 7x7, partner max 1 µM)	0.0925	0.192	0.0991	0.123	0.339	0.0442	0.776	0.446	0.321	0.931	0.232	0.0353	0.0747	0.338	0.144	0.844	0.163	0.078	0.0944	0.207
CN(C)CCCOc1ccc(-c2ccc3ncc4c(c3c2)n(C2CCOCC2)c(=O)n4C)cn1 [AZD0156] + C[C@@H]1COCCN1C2=NC(=NC(=C2)C3(CC3)[S@](=N)(=O)C)C4=C5C=CNC5=NC=C4 [AZD6738] (first compound max 1 µM, 7x7, partner max 10 µM)	-0.0126	0.661	0.659	0.543	0.462	0.486	0.694	0.746	0.696	1	0.515	0.252	0.311	0.637	0.244	0.472	0.773	0.232	0.914	0.402
CN(C)CCCOc1ccc(-c2ccc3ncc4c(c3c2)n(C2CCOCC2)c(=O)n4C)cn1 [AZD0156] + O=C(c1cc(Cc2n[nH]c(=O)c3ccccc23)ccc1F)N1CCN(C(=O)C2CC2)CC1 [Olaparib] (first compound max 3 µM, partner max 3 µM)	-0.0093	0.37	0.346	0.177	0.387	0.217	0.692	0.251	0.576	0.794	0.414	0.238	0.273	0.318	0.201	0.197	0.348	0.181	0.343	0.119
C=CCn1c(=O)c2cnc(Nc3ccc(N4CCN(C)CC4)cc3)nc2n1-c1cccc(C(C)(C)O)n1 [AZD1775] + C1CN(CCC1(C(=O)N[C@@H](CCO)C2=CC=C(C=C2)Cl)N)C3=NC=NC4=C3C=CN4 [Capivasertib] (first compound max 3 µM, partner max 3 µM)	0.0275	0.596	0.618	0.522	0.786	0.648	0.818	0.622	0.848	0.99	0.649	0.797	0.83	0.826	0.416	0.936	0.814	0.359	0.85	0.555
C=CCn1c(=O)c2cnc(Nc3ccc(N4CCN(C)CC4)cc3)nc2n1-c1cccc(C(C)(C)O)n1 [AZD1775] + C[C@@H]1COCCN1C2=NC(=NC(=C2)C3(CC3)[S@](=N)(=O)C)C4=C5C=CNC5=NC=C4 [AZD6738] (first compound max 1 µM, partner max 10 µM)	0.0804	0.722	0.73	0.682	0.563	0.689	0.675	0.872	0.763	1	0.511	0.655	0.799	0.777	0.464	0.683	0.754	0.41	1	0.64
